{
  "source": "patent US20260034222A1",
  "about": "“HYDROGEL COMPOSITION FOR THE TREATMENT OF PERITONEAL DISEASES” (UPyTher B.V., priority 2023, published 2026)",
  "key": {"[1]": {"details": "in vivo; cited from earlier work"}, "tumor cell lines": {"test_system": "tumor cell lines", "details": "cited from earlier work"}, "patients": {"test_system": "patients", "details": "dosing regimens of 35 mg/m2; cited from earlier work"}, "[2]": {"experiment": "Mitomycin C release from UPy-PEG hydrogels", "assay_type": "physicochemical", "procedure": "(§1) Mitomycin C was loaded from a stock solution (52 mM in DMSO) to 0.52 mM in the hydrogel solution. The drug loaded solution (100 μL) was transferred to a Millicell insert, which was placed in a 24-wells plate filled with PBS pH 7.4 (600 μL). At set time points the PBS was refreshed and the removed PBS was analyzed for drug content UV absorbance at 363 nm. Release experiments were performed with n=3."}, "[3]": {"experiment": "Drug release from thermoreversible RTGel hydrogel", "assay_type": "physicochemical", "details": "0.4 mM, PBS pH 7.4 (FIG. 10)", "procedure": "RTGel hydrogel was formulated using the following ingredients and quantities:\nMitomycin C and chol-MMC were loaded from a stock solution (30 mM in DMSO) to 0.4 mM in the hydrogel solution. The drug loaded solution (100 μL) was cooled and transferred to a Millicell insert, which was placed in a 24-wells plate filled with PBS pH 7.4 (600 μL). At set time points the PBS was refreshed and the removed PBS was analyzed for drug content UV absorbance at 363 nm. Release experiments were performed with n=3."}, "[4]": {"test_system": "mice with peritoneal metastases", "details": "intraperitoneal lavage for 90 minutes versus 60 minutes; cited from earlier work"}, "[5]": {"details": "in words; cited from earlier work"}, "[6]": {"experiment": "Mitomycin C and VX970 combined release from hydrogel", "assay_type": "physicochemical", "details": "Polymer 7, 5 wt %, 12 μg/ml VX970 with 0.52 mM MMC (FIG. 7)", "procedure": "as §1, with “C (MMC)” for “C”, “solution. VX970 was loaded from a stock solution (1.2 mg/ml in DMSO) to 12 μg/ml.” for “solution.”, “7.4 (700” for “7.4 (600”, “for MMC” for “for drug”, “content by” for “content”, “nm. For VX970, a HPLC-MS/MS method was used (Kiesel et al.).” for “nm.”"}, "[7]": {"experiment": "TLR-agonist release from UPy-PEG hydrogels", "assay_type": "physicochemical", "details": "Polymer 6, 6 and 10 wt %, 0.5 mM MEDI9197 (FIG. 11B)", "procedure": "The TLR-agonist resiquimod (synonym R848) was loaded from a stock solution (50 mM in DMSO) to 1.27 mM in the hydrogel. The TLR-agonist telratolimod (synonym MEDI9197) was loaded from a stock solution (10 mM in DMSO) to 0.5 mM in the hydrogel.\nThe drug loaded solution (100 μL) was transferred to a Millicell insert, which was placed in a 24-wells plate filled with PBS pH 7.4 (700 μL). At set time points the PBS was refreshed and the removed PBS was analyzed for R848 content UV absorbance at 320 nm. For MEDI9197, PBS was substituted for a volatile ammonium carbonate buffer and a HPLC-MS method was used. Release experiments were performed with n=3."}},
  "data": [
    {"compound": "CO[C@@]12[C@H](COC(N)=O)C3=C(C(=O)C(C)=C(N)C3=O)N1C[C@@H]1N[C@@H]12", "note": "[Mitomycin C]", "values": [
      {"measurement": "half-life in the peritoneal cavity", "setting": "[1]", "result": "1 to 1.5", "unit": "h"},
      {"measurement": "concentration required to kill 90% of the cells", "setting": "tumor cell lines; exposure time more than 10 hours", "result": 0.1, "unit": "µg/mL"},
      {"measurement": "concentration needed to kill 90% of the cells in culture", "setting": "tumor cell lines; exposure time shorter than one hour", "result": 5, "unit": "µg/mL"},
      {"measurement": "patients who developed severe bone marrow suppression", "setting": "patients", "result": 28, "unit": "%"},
      {"measurement": "duration of sustained mitomycin C release", "setting": "[2]; polymer 6, 6, 7, 8 wt %, 0.52 mM, PBS pH 7.4 (FIG. 6)", "result": "1 to 2", "unit": "days"},
      {"measurement": "dependence of drug release on polymer density", "setting": "[2]; polymer 6, 6, 7 or 8 wt %", "result": "not dependent on the polymer density"},
      {"measurement": "effect of higher precursor pH on burst release", "setting": "[2]; polymer 6, precursor pH 8.5, 9.0 or 9.5", "result": "did not give rise to an increased burst release"},
      {"measurement": "time of release from Pluronic-based RTGel hydrogel", "setting": "[3]", "result": "1 to 2", "unit": "days"},
      {"measurement": "survival", "setting": "[4]", "result": "better survival"}
    ]},
    {"compound": "CC(=O)O[C@@]12CO[C@@H]1C[C@H](O)[C@@]1(C)C(=O)[C@H](O)C3=C(C)[C@@H](OC(=O)[C@H](O)[C@@H](NC(=O)OC(C)(C)C)c4ccccc4)C[C@@](O)([C@@H](OC(=O)c4ccccc4)[C@H]21)C3(C)C", "note": "[docetaxel]", "values": [
      {"measurement": "clearance from the peritoneal cavity", "setting": "[1]", "result": "cleared in less than day"}
    ]},
    {"compound": "CNCc1ccc(-c2cc(-c3nc(-c4ccc(S(=O)(=O)C(C)C)cc4)cnc3N)on2)cc1", "note": "[VX-970, berzosertib]", "values": [
      {"measurement": "solubility in water", "setting": "[5]", "result": "insoluble in water"},
      {"measurement": "release rate relative to MMC", "setting": "[6]", "result": "released slower than MMC"}
    ]},
    {"compound": "CC(=O)O[C@H]1C(=O)[C@@]2(C)[C@H]([C@H](OC(=O)c3ccccc3)[C@]3(O)C[C@H](OC(=O)[C@H](O)[C@@H](NC(=O)c4ccccc4)c4ccccc4)C(C)=C1C3(C)C)[C@]1(OC(C)=O)CO[C@@H]1C[C@@H]2O", "note": "[paclitaxel]", "values": [
      {"measurement": "clearance from the peritoneal cavity", "setting": "[1]", "result": "cleared in less than day"}
    ]},
    {"compound": "CCCCCCCCCCCCCCCCCC(=O)NCCCCOn1c(CCCC)nc2c(N)nc3ccccc3c21", "note": "[MEDI9197, telratolimod]", "values": [
      {"measurement": "release rate relative to comparator", "setting": "[7]", "result": "released slower than MMC"}
    ]}
  ]
}
